One experiment has as its system ARPE-19 cells. The experiment is described as follows: UOS-induced apoptosis in ARPE-19 cells (Hoechst-positive pyknotic cells). Type of experiment: cell-based, human. The note with it: for protection against UOS: free fatty acids, ARPE-19 cells; for UOS-induced apoptosis: 200 nM; for UOS-induced apoptotic cell death: concentration-dependent 50-500 nM, highest inhibition at 500 nM, lowest at 50 nM. The protocol: FIGS. 6A and 6B depicts immunostaining of primary human RPE cells using specific markers ZO-1 (Zona occludens-1), RPE65, MITF (Micro-ophtalmia-associated Transcription Factor) and β-catenin, as well as light microscopy depicting primary human RPE cell morphology at different passages in culture. ARPE-19 cells were grown and maintained in T-75 mM flasks in DMEM F-12 medium containing 10% FBS and incubated at 37° C. with a constant supply of 5% CO2. Cells at 75-80% confluence (72 h growth in DMEM/F12+10% FBS) in 6-well plates were serum-starved for 8 h before exposure. […] The serum-starved cells were treated with TNF-α (Sigma-Aldrich, St. Louis, Mo.) (10 ng/ml) and H2O2 (600 μM) to induce oxidative stress and challenged with increasing concentrations (50-500 nM) of VLC-PUFA (C32:6n3 and C34:6n3) simultaneously with oxidative stress for 16 h (apoptosis) and 6 h (Western-blot) before detection of apoptosis and harvesting for protein analysis. In some experiments, DHA at a concentration of 100 nM and 15-LOX-1 inhibitor PD146176 at a concentration of 1 μM was added to treat the RPE cells under stress. Cell extracts were made and protein concentrations adjusted by Bio-Rad (Hercules, Calif.) protein reagent and used for Western blot analysis. To assess cell death, hRPE and ARPE-19 cells were fixed with methanol for 15 mins, washed with 1×PBS then loaded with 2 μM Hoechst dissolved in a Locke's solution (Promega) and incubated for another 15 mins before imaging. Cells were then viewed by using a Zeiss LSM 510 confocal microscope under UV fluorescence. Images were recorded and cell apoptosis was assessed by using an automated unbiased method.

Experiment [1] deals with rats with middle cerebral artery occlusion (MCAo). The experiment is described as follows: Ex vivo MRI (T2WI) lesion, core and penumbra volumes after MCAo. The note with it: day 7, compared to CSF-treated group. The experiment is classed as in vivo, rat. The protocol: Male Sprague-Dawley rats (Charles River Lab., Wilmington, Mass.) weighing 280-340 g were fasted overnight but allowed free access to water. Atropine sulfate (0.5 mg/kg, i.p.) was injected 10 mins before anesthesia. Anesthesia was induced with 3% isoflurane in a mixture of 70% nitrous oxide and 30% oxygen. All rats were orally intubated and mechanically ventilated. During ventilation, the animals were paralyzed with pancuronium bromide (0.6 mg/kg, i.p.). The catheters were implanted into the right femoral artery and vein for the blood sampling and infusion of drug. Serial analyses of arterial blood gases, plasma glucose, arterial blood pressure and heart beating rate were conducted before and during surgical procedure. Rectal (CMA/150 Temperature Controller, CMA/Microdialysis AB, Stockholm, Sweden) and cranial (temporalis muscle; Omega Engineering, Stamford, Conn.) temperatures were closely monitored before, during and after MCAo. Rectal temperature and body weight were monitored daily until sacrifice.
Rats underwent 2 h of right middle cerebral artery occlusion (MCAo) by an intraluminal-filament. In brief, the right common carotid artery (CCA) bifurcation was exposed through a midline neck incision and the occipital artery branches of the external carotid artery were isolated, ligated and dissected. After careful isolation of the internal carotid artery (ICA), a 3-0 monofilament coated with poly-L-lysine was advanced through the ICA to the MCA until mild resistance was felt. The neck incision was closed with a silk suture and the animals were then allowed to recover. After 2 h of MCAo, rats were re-anesthetized with the same anesthetic combination. Temperature probes were re-inserted, and intraluminal sutures were carefully removed. The animals given free access to food and water for 7 days.
Thirty minutes after suture removal, a brain infusion cannula was implanted into the right lateral ventricle for treatment administration in each rat. Rats were anesthetized with 3% isoflurane and were secured to a stereotaxic apparatus with skull leveled between bregma and lambda. A sterile stainless steel cannula (5-mm long) was implanted into the lateral ventricle using the stereotaxic coordinates (0.2 mm caudal to bregma, 2 mm lateral to midline, and 5 mm below the dura). Cannulas were removed after treatment was completed.
Elovanoids (ELV) as sodium salts (Na) or methyl esters (Me) were dissolved in artificial cerebral spinal fluid (CSF) and administered into right lateral ventricle 1 hour after 2 h of MCAo. The following ELVs were used: ELV-N32-Na, ELV-N32-Me, ELV-N34-Na and ELV-N34-Me (5 μg/[…]) or CSF (50 μl). All treatments were administered by a researcher blinded to the treatment groups. […]

Turning to `CC/C=C\C/C=C\C/C=C\C/C=C\C/C=C\C/C=C\CCCCCCCCCCCCC(=O)O` [32:6n3, (14Z,17Z,20Z,23Z,26Z,29Z)-dotriaconta-14,17,20,23,26,29-hexaenoic acid], the “protection against UOS” value in the experiment with ARPE-19 cells is on record as “elicit protection against UOS”.

For the compound `CC/C=C\C/C=C\C/C=C\C/C=C\C/C=C\C/C=C\CCCCCCCCCCCCCCC(=O)O` [34:6n3, (16Z,19Z,22Z,25Z,28Z,31Z)-tetratriaconta-16,19,22,25,28,31-hexaenoic acid], in the experiment with ARPE-19 cells, the “protection against UOS” value is given as “elicit protection against UOS”.

Consider `CC/C=C\C[C@H](O)\C=C/C=C/C=C/[C@H](O)C/C=C\C/C=C\CCCCCCCCCCCCC(=O)OC` [ELV-N32-Me, methyl (14Z,17Z,20R,21E,23E,25Z,27S,29Z)-20,27-dihydroxydotriaconta-14,17,21,23,25,29-hexaenoate], for which the “reduction of total lesion volume” value in experiment [1] was 56%.

Take `CC/C=C\C[C@H](O)\C=C/C=C/C=C/[C@H](O)C/C=C\C/C=C\CCCCCCCCCCCCC(=O)[O-].[Na+]` [ELV-N32-Na, sodium (14Z,17Z,20R,21E,23E,25Z,27S,29Z)-20,27-dihydroxydotriaconta-14,17,21,23,25,29-hexaenoate]: in the experiment on ARPE-19 cells, the UOS-induced apoptosis result is “attenuation of apoptosis” and the “UOS-induced apoptotic cell death” value is “attenuated”. Further, in experiment [1], the “reduction of total lesion volume” value worked out at 60%.

In the case of `CC/C=C\C[C@H](O)\C=C/C=C/C=C/[C@H](O)C/C=C\C/C=C\CCCCCCCCCCCCCCC(=O)OC` [ELV-N34-Me, methyl (16Z,19Z,22R,23E,25E,27Z,29S,31Z)-22,29-dihydroxytetratriaconta-16,19,23,25,27,31-hexaenoate], the “UOS-induced apoptotic cell death” value in the experiment on ARPE-19 cells was “attenuated”. The “reduction of total lesion volume” value in experiment [1] was found to be 91%.

As for `CC/C=C\C[C@H](O)\C=C/C=C/C=C/[C@H](O)C/C=C\C/C=C\CCCCCCCCCCCCCCC(=O)[O-].[Na+]` [ELV-N34-Na, sodium (16Z,19Z,22R,23E,25E,27Z,29S,31Z)-22,29-dihydroxytetratriaconta-16,19,23,25,27,31-hexaenoate], the UOS-induced apoptosis entry in the experiment with ARPE-19 cells is “attenuation of apoptosis”. The “reduction of total lesion volume” value in experiment [1] is listed as 99%.

The values are drawn from patent US11684599B2, “Very-long-chain polyunsaturated fatty acids, elovanoid hydroxylated derivatives, and methods of use” (Board of Supervisors of Louisiana State University and …, priority 2017, dated 2023).
